Type in all cases: cell-based
Assay [1] deals with HGC‐27 (gastric carcinoma). The experiment in a line: Resazurin cell viability assay, HGC‐27. The settings on record: 50 µM, 72 h, mean ± SD, n = 3; for inhibition at 50 µM: Homo sapiens, HGC-27, read-out: % Cellular growth inhibition (at 50 µM) HGC‐27. The protocol:
(§1) The tongue squamous cell carcinoma cell line CAL‐27 (ATCC CRL‐2095), breast carcinoma BT‐20 (ATCC HTB‐19), gastric carcinoma HGC‐27 (BCRJ Code 0310), and normal oral fibroblast OHMF (culture of fibroblasts derived from human oral healthy mucosa, approved by the Research Ethics Committee of the University of São Paulo, Campus of Ribeirão Preto, Brazil (with protocol number 049) were cultured in DMEM medium (DMEM, Sigma‐Aldrich, St. Louis, MO, USA) supplemented with 10% fetal bovine serum and a solution of penicillin (100 U/mL) and streptomycin (100 μg/mL). The cultures were maintained in a humidified incubator with 5% CO₂ at 37°C.
(§2) Cell viability was analyzed using the resazurin assay. For this, cells were seeded in 96‐well plates (1 × 10^3 cells per well) and incubated at 37°C with 5% CO₂ overnight for cell adhesion. Subsequently, the cells were treated with different compounds (0–50 µM) for 72 h. After treatment, the medium was replaced with phenol‐free DMEM medium (Sigma‐Aldrich) containing resazurin at a concentration of 44 µM (Sigma‐Aldrich). After incubation for 4 h at 37°C, fluorescence detection was performed (excitation 530/25 nm, emission 590/35 nm) using a microplate fluorimeter (Synergy 2, Biotek). Initial cell growth inhibition assays were performed in triplicate or quadruplicate, while IC50 determinations were conducted in triplicate. Data were plotted, and IC₅₀ values were determined by nonlinear regression using GraphPad Prism software 9.0.
(§3) ^a Cell viability was assessed using the resazurin assay after 72 hours of compound treatment. Fluorescence was measured to estimate % of cellular growth inhibition at 50 µM values, based on triplicate experiments.
(§4) ^b IC50 values were determined using the same resazurin-based assay, with fluorescence measurements performed after 72 hours of treatment. These experiments were carried out in triplicate.

The subject of the next assay is CAL‐27 (oral carcinoma). The experiment in a line: Resazurin cell viability assay, CAL‐27. The settings on record: 50 µM, 72 h, mean ± SD, n = 3; for inhibition at 50 µM: Homo sapiens, CAL-27, read-out: % Cellular growth inhibition (at 50 µM) CAL‐27. The protocol:
as §1, §2, §3, §4

In assay [2] the test system is CAL‐27, BT‐20 and HGC‐27 cancer cell lines. The experiment in a line: Resazurin antiproliferative screening, cancer cell line panel. The settings on record: 50 μM, 70% inhibition threshold. The protocol:
as §1, §2
For orientation: The colour change of resazurin is a common sign of viable cells or microbes.

The target of another assay is T1, human P2X7 receptor (Homo sapiens, UniProt Q99572).
T1 construct: host or cells: HEK-293
T1 sequence (Q99572 1-595): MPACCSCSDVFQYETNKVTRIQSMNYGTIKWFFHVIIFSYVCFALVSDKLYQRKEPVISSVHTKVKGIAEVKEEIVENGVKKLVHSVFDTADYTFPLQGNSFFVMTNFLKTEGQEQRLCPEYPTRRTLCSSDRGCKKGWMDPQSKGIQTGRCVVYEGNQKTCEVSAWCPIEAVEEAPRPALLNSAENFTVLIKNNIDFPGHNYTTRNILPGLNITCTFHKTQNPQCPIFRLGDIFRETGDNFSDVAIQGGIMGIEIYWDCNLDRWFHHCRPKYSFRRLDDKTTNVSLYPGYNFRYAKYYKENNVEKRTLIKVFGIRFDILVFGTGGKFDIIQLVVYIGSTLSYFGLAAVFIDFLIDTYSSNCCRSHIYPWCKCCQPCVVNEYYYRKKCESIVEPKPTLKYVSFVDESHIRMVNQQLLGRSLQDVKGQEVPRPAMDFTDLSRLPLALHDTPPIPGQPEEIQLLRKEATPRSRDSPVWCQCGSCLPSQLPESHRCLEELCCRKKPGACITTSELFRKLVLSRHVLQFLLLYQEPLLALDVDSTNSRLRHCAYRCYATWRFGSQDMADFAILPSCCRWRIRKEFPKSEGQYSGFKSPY
Put plainly: YO‐PRO‐1 dye uptake assay for the P2X7 receptor. The settings on record: for inhibition at 10 µM: P2X7, read-out: % Inhibition of P2X7R at 10 µM compounds’ concentration. The protocol:
HEK‐293 cell lines stably expressing human P2X7 receptor (hP2X7R‐HEK‐293, B'SYS GmbH, Witterswil, Switzerland) were maintained in a 50/50 mix of Dulbecco's Modified Eagle Medium and F12 medium (DMEM/F12) supplemented with 9% (v/v) FCS, 1% (v/v) Penicillin/Streptomycin (10000 I.U./mL, 10 mg/mL in 0.9% NaCl) and G418 (100 µg/mL) at 37°C and 5% CO2. Cells were subcultured in cell culture 75 cm^2 flasks and split every 2‐4 days (1:3; 1:6; 1:10) once confluent.
HEK‐293 cell lines stably expressing human P2X7 receptor were seeded into black‐walled Nunc 96‐well optical bottom plates (Thermo Fisher Scientific) at 2.0–4.0 × 10^4 cells/well and incubated at 37°C for 24–48 h. After removing the culture medium, cells were washed with 100 µL wash buffer (280 mM Sucrose; 5.6 mM KCl; 0.5 mM CaCl2; 10 mM D‐Glucose; 10 mM HEPES; 5 mM N‐Methyl‐D‐glucamine (pH 7.4)). Then, 50 µL assay buffer (280 mM Sucrose; 6.4 mM KCl, 10 mM D‐Glucose; 10 mM HEPES; 5.0 mM N‐Methyl‐D‐glucamine (pH 7.4)) and 50 µL of antagonist dilutions (10^–5–10^–9 M) in assay buffer were added, and the cells were incubated at 37°C for 30 min. […] Finally, the uptake of YO‐PRO‐1 dye was recorded in a 9‐point‐well scan by following the fluorescence change using a FlexStation 3 Multi‐Mode Microplate Reader (Molecular Devices, San Jose, CA, USA, Software SoftMax7 Pro, endpoint protocol, well scan with reading pattern “fill scan”, λ ex = 485 nm, λ em = 535 nm). To determine the concentration‐dependent uptake inhibition by antagonists, the YO‐PRO‐1 uptake, expressed as RFU, was plotted against the concentrations of the compounds.

The next assay deals with BT‐20 (breast carcinoma). Put plainly: Resazurin cell viability assay, BT‐20. Particulars: 50 µM, 72 h, mean ± SD, n = 3; for inhibition at 50 µM: Homo sapiens, BT-20, read-out: % Cellular growth inhibition (at 50 µM) BT‐20. The protocol: as §1, §2, §3, §4
A further assay concerns the target T2, human P2X4 receptor (Homo sapiens, UniProt Q99571).
T2 construct: expressed in transfected cells; host or cells: human 1321N1 astrocytoma cells
T2 sequence (Q99571 1-388): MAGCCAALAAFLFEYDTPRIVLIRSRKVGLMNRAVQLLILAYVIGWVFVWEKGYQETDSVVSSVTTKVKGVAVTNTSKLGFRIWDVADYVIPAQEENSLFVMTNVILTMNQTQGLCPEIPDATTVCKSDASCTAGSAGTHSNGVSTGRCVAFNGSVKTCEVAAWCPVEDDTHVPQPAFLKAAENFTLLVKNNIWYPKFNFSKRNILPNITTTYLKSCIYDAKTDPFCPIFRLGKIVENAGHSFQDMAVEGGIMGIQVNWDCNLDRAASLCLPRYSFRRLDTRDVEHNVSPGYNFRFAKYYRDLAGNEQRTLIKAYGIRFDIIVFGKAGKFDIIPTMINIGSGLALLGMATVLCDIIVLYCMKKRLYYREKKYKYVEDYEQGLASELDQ
Put plainly: Ca2+‐flux assay for the hP2X4 receptor. Particulars: for inhibition at 10 µM: read-out: % Inhibition of P2X4R at 10 µM compounds’ concentration. The protocol: Human 1321N1 astrocytoma cells stably expressing the human P2X4 receptor (generated in‐house) were cultured in Dulbecco's Modified Eagle Medium supplemented with 9% (v/v) FCS, 1% (v/v) Penicillin/Streptomycin (10000 I.U./mL, 10 mg/mL in 0.9% NaCl) and puromycin (1 µg/mL) as a selection antibiotic at 37°C and 5% CO2. Cells were subcultured in cell culture 75 cm^2 flasks and split every 2–4 days (1:5; 1:6) once confluent.
1321N1 cells stably expressing human P2X4 receptor were seeded into black‐walled 96‐well plates (Thermo Fisher Scientific) at 2.5 × 10^4 cells/well and incubated at 37°C for 24–48 h. All test compounds were diluted in assay buffer solution (SBS: 135 mM NaCl; 5 mM KCl; 1 mM MgCl2.6 H2O; 1.8 mM CaCl2; 5.6 mM D‐Glucose; 10 mM HEPES, 0.1% (m/v) BSA, 0.05% (m/v) gelatine, 2.3 mM probenecid). The culture medium was removed, and 100 µL of 4 μM fluorescent Ca^2+ indicator Calbryte520AM in SBS was added and incubated at 37°C for 1 h. The dye solution was then removed, 100 µL of SBS solution and 50 µL of antagonist dilutions (10^–5–10^–9 M) in SBS were added, and the cells were incubated at room temperature for an extra 30 min. Finally, 50 µL of ATP (at a concentration of the previously determined EC50‐ value) was added by using FlexStation 3 Multi‐Mode Microplate Reader (Molecular Devices, San Jose, CA, USA, Software SoftMax7 Pro). The changes in intracellular Ca^2+ ion concentrations were monitored over 200 s (20 s baseline) by measuring the fluorescence signal at λ ex = 494 nm and λ em = 516 nm ([…] cut‐off). The concentration‐dependent decrease in Ca^2+‐flux, expressed as RFU, was plotted against the concentrations of the compounds.

For the molecule `CCOC(=O)c1cn2cc(OC)ccc2c1C(=O)c1cc(OC)c(OC)c(OC)c1` [Compound 8d, Ethyl [6‐methoxy‐1‐(3,4,5‐trimethoxybenzoyl)indolizine]‐2‐carboxylate], the “% Cellular growth inhibition (at 50 µM) HGC‐27” value in assay [1] worked out at 44 ± 1.9%. In addition, the “% Cellular growth inhibition (at 50 µM) CAL‐27” value with CAL‐27 (oral carcinoma) was found to be 66 ± 0.8%. Also, the “level of inhibition in the 50 µM screening” value in assay [2] is at most 70%. Moreover, the “% Inhibition of P2X7R at 10 µM compounds’ concentration” value at human P2X7 receptor (10 μM) is recorded as -10%. Also, in the assay on BT‐20 (breast carcinoma), the “% Cellular growth inhibition (at 50 µM) BT‐20” value is 55 ± 4.7%. Also, the “% Inhibition of P2X4R at 10 µM compounds’ concentration” value on human P2X4 receptor (10 μM) was determined as 2%.

For the molecule `COc1ccc2c(C(=O)c3cc(OC)c(OC)c(OC)c3)c(-c3ccccc3)cn2c1` [Compound 8f, (6‐methoxy‐2‐phenylindolizin‐1‐yl)(3,4,5‐trimethoxyphenyl)methanone], the inhibition at 50 µM in assay [1] amounted to 49 ± 4%; in the assay with CAL‐27 (oral carcinoma), 69 ± 0.4%; in the assay on BT‐20 (breast carcinoma), 55 ± 1.8%. Further, the inhibition at 10 µM on human P2X7 receptor came to 5%; at human P2X4 receptor it was 4%.

Turning to `COc1ccc2c(C(=O)c3cc(OC)c(OC)c(OC)c3)c(-c3ccccn3)cn2c1` [Compound 8g, [6‐methoxy‐2‐(pyridin‐2‐yl)indolizin‐1‐yl](3,4,5‐trimethoxyphenyl)methanone], the inhibition at 50 µM in assay [1] came out at 44 ± 0.4%; with CAL‐27 (oral carcinoma), 68 ± 1%; with BT‐20 (breast carcinoma), 54 ± 2.8%. For the same molecule, the inhibition at 10 µM at human P2X7 receptor was 1%; on human P2X4 receptor, -8%.

Regarding `CCCCCc1cn2cc(OC)ccc2c1C(=O)c1cc(OC)c(OC)c(OC)c1` [Compound 8i, (6‐methoxy‐2‐pentylindolizin‐1‐yl)(3,4,5‐trimethoxyphenyl)methanone], the inhibition at 50 µM in assay [1] amounted to 61 ± 1.5%; in the assay on CAL‐27 (oral carcinoma), 57 ± 2.5%; in the assay on BT‐20 (breast carcinoma) it was 38 ± 3.5%. Further, the inhibition at 10 µM was 6% at human P2X7 receptor and -1% on human P2X4 receptor.

Source of the values: publication PMC12673918, “Design, Synthesis, and Selective Antiproliferative Activity of Indolizine Derivatives as Microtubule Destabilizers” (Archiv Der Pharmazie, 2025).
